From patent US4966900A, “Cephalosporin β-lactam compound and medicinal composition” (priority 1986, dated 1990)
Where a name gives a salt, the structure may show the parent alone. Read-outs that look alike come from different tables or passages of the source.

How the values were obtained:
[1] = central and tissue distribution volume in Macaco (parenteral, HPLC); format: in vivo; details: monkey, blood, 20 mg/kg, 20 mg/kg parenteral, sodium salt
Method: 20 mg/kg of the compound obtained in Example 1 was administered parenterally to Macaco and a central distribution volume and a tissue distribution volume were calculated by their concentrations in blood measured with time.
The concentration of the compound was measured according to HPLC method. Microbondapack C18 (trade name, produced by Waters Co.) was used as a column and 8% acetonitrile-2% tetrahydrofuran-0.2% phosphoric acid was used as a solvent.

[2] = tested on: E. cloacae 1Y247; test: MIC; format: cell-based; details: Enterobacter cloacae, Table 3, sodium salt, read-out: MIC
Method: The minimum inhibition concentrations (MIC) of the compounds obtained in the respective examples described above were measured according to the standard method of Japanese Chemotherapy Association.

[3] = tested on: A. calcoaceticu OF1063; test: MIC; format: cell-based; details: Table 2, sodium salt
Method: (§1) The minimum inhibition concentrations (MIC) of the compounds obtained in Example 1 and Example 2 were measured according to the standard method of Japanese Chemotherapy Association.

[4] = tested on: A. xylosoxidans OF1001; test: MIC; format: cell-based; details: Achromobacter xylosoxidans, Table 2, sodium salt
Method: as §1

[5] = tested on: E. coli NIHJ JC-2; test: MIC; format: cell-based; details: Escherichia coli, NIHJJC2, Table 2, sodium salt
Method: as §1

[6] = tested on: S. aureus Smith; test: MIC; details: Staphylococcus aureus, Table 2, sodium salt
[7] = tested on: E. coli ML4707; test: MIC; details: Escherichia coli, ML4707, E. coli ML4707; Table 2, sodium salt
[8] = tested on: E. coli GN5482; test: MIC; details: Escherichia coli, GN5482, E. coli GN5482; Table 2, sodium salt
[9] = tested on: K. pneumoniae 4at521; test: MIC; details: Klebsiella pneumoniae, 4AT521
[10] = tested on: E. colacae GN7471; test: MIC; details: Table 2, sodium salt
[11] = tested on: E. cloacae 908RN; test: MIC; details: Enterobacter cloacae
[12] = tested on: C. freundii GN7391; test: MIC; details: Citrobacter freundii, GN7391, C. freundii GN7391
[13] = tested on: S. marcescens GN10857; test: MIC; details: Serratia marcescens, GN10857, S. marcescens GN10857; Table 2, sodium salt
[14] = tested on: P. vulgaris GN7919; test: MIC; details: Proteus vulgaris, GN7919
[15] = tested on: P. aeruginosa GN10362; test: MIC; details: Pseudomonas aeruginosa, GN10362
[16] = tested on: P. aeruginosa 4au542; test: MIC; details: Pseudomonas aeruginosa, 4AU542, P. aeruginosa 4au542; Table 2, sodium salt
[17] = tested on: P. aeruginosa 5D58-1; test: MIC; details: Pseudomonas aeruginosa, 5D581, P. aeruginosa 5D58-1; Table 2, sodium salt
[18] = tested on: P. cepacia OF189; test: MIC; details: Burkholderia cepacia, OF189, P. cepacia OF189; Table 2, sodium salt
[19] = tested on: P. maltophilia OF247; test: MIC; details: Stenotrophomonas maltophilia, Table 2, sodium salt
[20] = tested on: E. cloacae 5D52-2; test: MIC; details: Enterobacter cloacae, 5D522
[21] = tested on: E. cloacae 5D63-2; test: MIC; details: Enterobacter cloacae, 5D632
[22] = tested on: E. cloacae 1V25; test: MIC; details: Enterobacter cloacae
[23] = tested on: C. freundii 5D60-1; test: MIC; details: Citrobacter freundii, 5D601
[24] = tested on: C. freundii 1R523; test: MIC; details: Citrobacter freundii, 1R523
[25] = tested on: C. freundii 1R524; test: MIC; details: Citrobacter freundii, 1R524
[26] = tested on: C. freundii 1R526; test: MIC; details: Citrobacter freundii, 1R526
[27] = tested on: C. freundii 1R527; test: MIC; details: Citrobacter freundii, 1R527
[28] = tested on: C. freundii 1U589; test: MIC; details: Citrobacter freundii, 1U589
[29] = tested on: C. freundii 1U692; test: MIC; details: Citrobacter freundii, 1U692

Vd ([1]; read-out: Central distribution volume): 0.144 L/kg
Vd ([1]; read-out: Tissue distribution volume): 0.295 L/kg
MIC [2]: > 100 µg/mL
MIC [3]: 3.13 µg/mL
MIC [4]: 1.56 µg/mL
MIC [5]: 0.1 µg/mL
MIC [6]: 6.26 µg/mL
MIC [7]: 0.025 µg/mL
MIC [8]: 1.56 µg/mL
MIC [9]: 0.012 µg/mL
MIC [10]: 25 µg/mL
MIC ([11]; E. cloacae 908RN, Table 3, sodium salt): > 100 µg/mL
MIC ([11]; E. colacae 908RN, Table 2, sodium salt): > 100 µg/mL
MIC ([12]; Table 2, sodium salt): > 100 µg/mL
MIC ([12]; Table 3, sodium salt): > 100 µg/mL
MIC [13]: 0.78 µg/mL
MIC [14]: 3.13 µg/mL
MIC [15]: 0.05 µg/mL
MIC [16]: 0.05 µg/mL
MIC [17]: 0.2 µg/mL
MIC [18]: 0.025 µg/mL
MIC [19]: 0.78 µg/mL
MIC [20]: 25 µg/mL
MIC [21]: 50 µg/mL
MIC [22]: 50 µg/mL
MIC [23]: 50 µg/mL
MIC [24]: 25 µg/mL
MIC [25]: 12.5 µg/mL
MIC [26]: 25 µg/mL
MIC [27]: 12.5 µg/mL
MIC [28]: 12.5 µg/mL
MIC [29]: 25 µg/mL
SMILES: CC(C)(ON=C(C(=O)NC1C(=O)N2C(C(=O)O)=C(COC(N)=O)CSC12)c1csc(N)n1)C(=O)NNC(=O)c1ccc(O)c(O)c1 (centres unmarked) [Example 1, 7-{2-[2-amino-1,3-thiazol-4-yl]-2-[1-(3-(3,4-dihydroxybenzoyl)carbazoyl)-1-methylethoxyimino]acetamide}-3-carbamoyloxymethyl-3-cephem-4-carboxylic acid.hydrochloride]
